Data reported in patent US20240300945A1, “CLY SERIES COMPOUND, PREPARATION METHOD THEREFOR AND USE THEREOF IN PREPARATION OF DRUGS” (NANJING WELLBEST PHARMACEUTICAL CO., LTD, priority 2021, published 2024).
Marks after values point to notes of the source that are not given here.

Experiments:
rat hair loss model = assay: Rat hair loss (androgenic alopecia) model: hair length; assay type: in vivo, Wistar rats; details: for 15-day hair length / 30-day hair length / 45-day hair length / 60-day hair length: rat AGA model; for adverse reactions: rat hair loss model, external use and system application, 60 days
Text: (1) Compound CLY-1, CLY-2, CLY-3, CLY-4, CLY-5, CLY-8, CLY-11, CLY-19, CLY-36, CLY-39 tincture preparation method: 75% ethanol was mixed with appropriate amount of above compounds to prepare a tincture of different concentrations.
(2) Positive treatment drug: 5% minoxidil tincture (trade name: Mandi, Zhejiang Wanma Pharmaceutical Co., Ltd.).
(§1) Wistar rats were, according to weights, randomly divided into the negative control group (75% ethanol for external use), model group (75% ethanol for external use), positive control group (external 5% minoxidil tincture), CLY-1 external treatment group (external 5% CLY-1 tincture), CLY-2 external treatment group (external 5% CLY-2 tincture), CLY-3 external treatment group (external 5% CLY-3 tincture), CLY-4 external treatment group (external 5% CLY-4 tincture), and CLY-5 external treatment group (external 5% CLY-5 tincture) according to their body weight CLY-8 external treatment group (external 5% CLY-8 tincture), CLY-11 external treatment group (external 5% CLY-11 tincture), CLY-19 external treatment group (external 5% CLY-19 tincture), CLY-36 external treatment group (external 5% CLY-36 tincture), CLY-39 external treatment group (external 5% CLY-39 tincture), CLY-1 intravenous injection group (2 mg/kg·d), CLY-3 intravenous injection group (2 mg/kg·d), CLY-4 intravenous injection group (2 mg/kg·d) CLY-5 intravenous injection group (2 mg/kg·d), CLY-8 intravenous injection group (2 mg/kg·d), CLY-11 intravenous injection group (2 mg/kg·d), CLY-19 intravenous injection group (2 mg/kg·d), CLY-36 intravenous injection group (2 mg/kg·d), and CLY-39 intravenous injection group (2 mg/kg·d), with 10 rats in each group. Before the experiment, an area of 4 cm×5 cm was selected on each rat on the back of the neck to remove hair as the observation area. In addition to the negative control group, rats were subcutaneously injected with testosterone propionate injection [5 ml/(kg·d)] once a day for 60 days to establish the androgenic alopecia (AGA) model. […] At the same time, the drug was applied to the observation area on the back of the rats in the corresponding drug group at the rate of 2 mL/(one time), twice a day, at an interval of 8 hours; Intravenous administration once a day. The negative control group and the model control group were smeared with 75% ethanol solution, 2 mL/(one rat per time), twice a day, for 60 days.
Took 10 hairs from the observation area on the back of each rat every 15 days after administration, and measured the hair length with a vernier caliper. After 60 days of administration, the skin of the experimental observation area was taken for routine tissue dehydration, paraffin embedding, HE staining, and light microscopy to observe the histopathological changes of the rat skin hair follicles and sebaceous glands. Semi-quantitative analysis was performed for each group. The grading criteria are as follows: the normal structure of dermal tissue cells, subcutaneous hair follicles, and sebaceous glands is marked as […]: no hyperplasia of dermal tissue is found, the lesions of hair follicles and sebaceous glands are limited, and no inflammation is found under the skin is marked as “+”: no obvious hyperplasia of dermal tissue is found, and the follicles are obviously cystic. No obvious hyperplasia of sebaceous glands is found, and no inflammation is found under the skin is marked as “+”: the dermal tissue has segmental hyperplasia, which is not obvious, A small number of hair follicles have cystic changes, and the sebaceous glands have mild hyperplasia and hypertrophy. There is no obvious inflammation under the skin, which is marked as “++”: the dermal tissue cells of the skin have different degrees of segmental hyperplasia, and some hair follicles have cystic changes, showing uneven size of hair follicles, and no cells around. The sebaceous glands have hyperplasia, and the nuclei in the proliferative glands are few. […]

[1] = system: skin hair follicles and sebaceous glands of rats; assay: Rat hair loss model: histopathological grading of skin hair follicles and sebaceous glands; assay type: in vivo, Wistar rats; details: 60 days, 10 rats per group; for number of rats with hair follicle and sebaceous gland grade +++: grade +++ (most severe); for number of rats with hair follicle and sebaceous gland grade ±: grade ± (lesions limited); for number of rats with hair follicle and sebaceous gland grade −: grade − (normal structure)
Text: as §1
Took 10 hairs from the observation area on the back of each rat every 15 days after administration, and measured the hair length with a vernier caliper. After 60 days of administration, the skin of the experimental observation area was taken for routine tissue dehydration, paraffin embedding, HE staining, and light microscopy to observe the histopathological changes of the rat skin hair follicles and sebaceous glands. Semi-quantitative analysis was performed for each group. The grading criteria are as follows: the normal structure of dermal tissue cells, subcutaneous hair follicles, and sebaceous glands is marked as […]: no hyperplasia of dermal tissue is found, the lesions of hair follicles and sebaceous glands are limited, and no inflammation is found under the skin is marked as “+”: no obvious hyperplasia of dermal tissue is found, and the follicles are obviously cystic. No obvious hyperplasia of sebaceous glands is found, and no inflammation is found under the skin is marked as “+”: the dermal tissue has segmental hyperplasia, which is not obvious, A small number of hair follicles have cystic changes, and the sebaceous glands have mild hyperplasia and hypertrophy. There is no obvious inflammation under the skin, which is marked as “++”: the dermal tissue cells of the skin have different degrees of segmental hyperplasia, and some hair follicles have cystic changes, showing uneven size of hair follicles, and no cells around. The sebaceous glands have hyperplasia, and the nuclei in the proliferative glands are few. A few rats have mild inflammatory hyperplasia under the skin, which is marked as “+++”.

[2] = external 5% tincture twice a day
[3] = intravenous injection 2 mg/kg·d

| SMILES | 15-day hair length (rat hair loss model; [2]) | 30-day hair length (rat hair loss model; [2]) | 45-day hair length (rat hair loss model; [2]) | 60-day hair length (rat hair loss model; [2]) | 15-day hair length (rat hair loss model; [3]) | 30-day hair length (rat hair loss model; [3]) | 45-day hair length (rat hair loss model; [3]) | 60-day hair length (rat hair loss model; [3]) | adverse reactions (rat hair loss model) | number of rats with hair follicle and sebaceous gland grade +++ ([1]; external 5% tincture) | number of rats with hair follicle and sebaceous gland grade +++ ([1]; intravenous 2 mg/kg·d) | number of rats with hair follicle and sebaceous gland grade ++ ([1]; external 5% tincture) | number of rats with hair follicle and sebaceous gland grade ++ ([1]; intravenous 2 mg/kg·d) | number of rats with hair follicle and sebaceous gland grade + ([1]; external 5% tincture) | number of rats with hair follicle and sebaceous gland grade + ([1]; intravenous 2 mg/kg·d) | number of rats with hair follicle and sebaceous gland grade ± ([1]; external 5% tincture) | number of rats with hair follicle and sebaceous gland grade ± ([1]; intravenous 2 mg/kg·d) | number of rats with hair follicle and sebaceous gland grade − ([1]; external 5% tincture) | number of rats with hair follicle and sebaceous gland grade − ([1]; intravenous 2 mg/kg·d) |
| --- | --- | --- | --- | --- | --- | --- | --- | --- | --- | --- | --- | --- | --- | --- | --- | --- | --- | --- | --- |
| NC1CCCC(N(C(=O)c2ccc(-n3nnc4cccnc43)cc2)c2ncccc2Cl)C1 (stereo not shown) [CLY-11] | 8.2* mm | 9.1* mm | 13.89* mm | 17.4* mm | 8.6* mm | 9.3* mm | 14.7* mm | 17.6* mm | no obvious adverse reactions | 0 | 0 | 1 | 1 | 4 | 3 | 5 | 6 | 0 | 0 |
| O=C(c1ccc(-c2ccccc2-c2nnn[nH]2)cc1)N(c1ncccc1Cl)[C@@H]1CCCNC1 [CLY-19] | 8.5* mm | 9.4* mm | 14.02* mm | 17.6* mm | 8.8* mm | 9.7* mm | 14.9* mm | 17.8* mm | no obvious adverse reactions | 0 | 0 | 2 | 2 | 3 | 2 | 5 | 6 | 0 | 0 |
| O=C(c1ccc(-c2ccccc2Cl)cc1)N(c1ncccc1Cl)[C@@H]1CCCNC1 [CLY-36] | 8.1* mm | 8.7* mm | 13.81* mm | 17.1* mm | 8.6* mm | 9.2* mm | 14.2* mm | 17.3* mm | no obvious adverse reactions | 0 | 0 | 3 | 3 | 2 | 1 | 5 | 6 | 0 | 0 |
| Nc1ccccc1-c1ccc(C(=O)N(c2ncccc2Cl)[C@@H]2CCCNC2)cc1 [CLY-39] | 9.1* mm | 9.3* mm | 14.8* mm | 18.2* mm | 9.3* mm | 9.9* mm | 14.9* mm | 18.1* mm | no obvious adverse reactions | 0 | 0 | 1 | 1 | 3 | 2 | 6 | 7 | 0 | 0 |
| Nc1cc(N2CCCCC2)nc(N)[n+]1[O-] [Positive control group, minoxidil, reference compound] | 7.6* mm | 8.5* mm | 13.1* mm | 16.2* mm |  |  |  |  |  | 1 |  | 3 |  | 4 |  | 2 |  | 0 |  |
